# Measured values taken from patent US20080039422A1, “Vitamin B12-Containing Compositions and Methods of Use” (Transition Therapeutics Inc., priority 2004, published 2008).
# Columns and labels:
# Assay type in all cases: physicochemical
# [1] = Stability of CN-Cbl solutions stored at room temperature (3 days, 2 weeks)
# Experimental: To determine the stability of the various solutions, the clarified stocks were aliquoted into fresh tubes and stored at room temperature, protected from light, for up to two weeks. Prior to measuring the concentrations of CN-Cbl on subsequent occasions, the tubes were centrifuged for ten minutes at rcf 16,100. The concentration of CN-Cbl was measured as described above by spectrophotometry.
# In the experiments described above, the concentration of CN-Cbl was measured within an hour or two after the components of the solutions were initially combined. To determine the stability of the preparations, the concentrations of CN-Cbl were measured in individual excipients after three days and the concentrations of CN-Cbl in combined excipients were measured after two weeks. Tables 3A-3B are tables showing the concentrations of CN-Cbl (mg/ml) in various solutions after three days incubation at room temperature. Solutions containing 0-60% propylene glycol (Table 3A) and solutions containing 0-40% ethanol (Table 3B) were challenged with 50, 75, 100, and 125 mg/ml CN-Cbl. Table 4 is a table showing the concentrations of CN-Cbl in excipients containing ethanol and propylene glycol after two weeks incubation at room temperature. The solutions were challenged with either 50 or 75 mg/ml CN-Cbl and the excipients contained ethanol (10, 15, or 20%) and propylene glycol (20, 30, or 40%). […] Regardless of the diminution in concentration over time, however, it was hypothesized that the initial concentrations of CN-Cbl could be restored with an additional application of energy (e.g., mixing, heating, or both mixing and heating; see below).
# [2] = Effects of temperature of heating solution on long-term stability
# Experimental: To study the effect of temperature, in some experiments, the solutions were heated to only 37° C. for 15 minutes (unless otherwise noted, the solutions were prepared as described above: by heating them to 60° C. for two hours, with additional mixing by vortexing carried out for 5-10 seconds every 5-10 minutes).
# The effect of heating the solutions to different temperatures on long-term stability was tested. Solutions challenged with 50 or 75 mg/ml CN-Cbl containing 20% ethanol and 20-40% propylene glycol that were prepared at 60° C. and 37° C. were compared. The concentrations of CN-Cbl in solutions prepared at 60° C. were measured after three days, and the concentrations of CN-Cbl in solutions prepared at 37° C. were measured after two weeks. No significant difference was found in the concentrations of CN-Cbl in these solutions when the challenge amount was 50 mg/ml and only a slight difference when the challenge amount was 75 mg/ml. Solutions challenged with either 50 or 75 mg/ml CN-Cbl and containing ethanol and/or propylene glycol were heated to 37° C. (in which case, the concentration of CN-Cbl was measured after two weeks incubation at room temperature) or 60° C. (in which case, the concentration of CN-Cbl was measured after three days incubation at room temperature). Additional information regarding stability was obtained in the experiments described below.
# [3] = Formulation of a buffer system; settings: 0.025 M phosphate buffer system, pH 8
# Experimental: It was also noted that changes in pH occurred during the solubility study. […] A suitable 0.025 M buffer system was developed containing 7.25 mg/ml disodium hydrogen phosphate dodecahydrate and 0.74 mg/ml sodium dihydrogen phosphate dihydrate.
substance,measurement,setting,value
cyanocobalamin [CN-Cbl],concentration of CN-Cbl,"[1]; After 3 days at Room Temperature, challenge 125 mg/ml, PG 30% v/v",28.3 mg/mL
same,concentration of CN-Cbl,"[1]; After 3 days at Room Temperature, challenge 125 mg/ml, PG 40% v/v",38.6 mg/mL
same,concentration of CN-Cbl,"[1]; After 3 days at Room Temperature, challenge 125 mg/ml, PG 50% v/v",46.2 mg/mL
same,concentration of CN-Cbl,"[1]; After 3 days at Room Temperature, challenge 125 mg/ml, PG 60% v/v",78.7 mg/mL
same,concentration of CN-Cbl,"[1]; after three days at room temperature, challenge 50 mg/ml, EtOH 0% v/v",13.6 mg/mL
same,concentration of CN-Cbl,"[1]; after three days at room temperature, challenge 50 mg/ml, EtOH 10% v/v",20.5 mg/mL
same,concentration of CN-Cbl,"[1]; after three days at room temperature, challenge 50 mg/ml, EtOH 20% v/v",26.9 mg/mL
same,concentration of CN-Cbl,"[1]; after three days at room temperature, challenge 50 mg/ml, EtOH 30% v/v",40.0 mg/mL
same,concentration of CN-Cbl,"[1]; after three days at room temperature, challenge 50 mg/ml, EtOH 40% v/v",47.6 mg/mL
same,concentration of CN-Cbl,"[1]; after three days at room temperature, challenge 75 mg/ml, EtOH 0% v/v",15.0 mg/mL
same,concentration of CN-Cbl,"[1]; after three days at room temperature, challenge 75 mg/ml, EtOH 10% v/v",23.0 mg/mL
same,concentration of CN-Cbl,"[1]; after three days at room temperature, challenge 75 mg/ml, EtOH 20% v/v",26.1 mg/mL
same,concentration of CN-Cbl,"[1]; after three days at room temperature, challenge 75 mg/ml, EtOH 30% v/v",43.0 mg/mL
same,concentration of CN-Cbl,"[1]; after three days at room temperature, challenge 75 mg/ml, EtOH 40% v/v",53.4 mg/mL
same,concentration of CN-Cbl,"[1]; after three days at room temperature, challenge 100 mg/ml, EtOH 0% v/v",14.9 mg/mL
same,concentration of CN-Cbl,"[1]; after three days at room temperature, challenge 100 mg/ml, EtOH 10% v/v",24.0 mg/mL
same,concentration of CN-Cbl,"[1]; after three days at room temperature, challenge 100 mg/ml, EtOH 20% v/v",27.8 mg/mL
same,concentration of CN-Cbl,"[1]; after three days at room temperature, challenge 100 mg/ml, EtOH 30% v/v",34.5 mg/mL
same,concentration of CN-Cbl,"[1]; after three days at room temperature, challenge 100 mg/ml, EtOH 40% v/v",46.1 mg/mL
same,concentration of CN-Cbl,"[1]; after three days at room temperature, challenge 125 mg/ml, EtOH 0% v/v",14.5 mg/mL
same,concentration of CN-Cbl,"[1]; after three days at room temperature, challenge 125 mg/ml, EtOH 10% v/v",21.5 mg/mL
same,concentration of CN-Cbl,"[1]; after three days at room temperature, challenge 125 mg/ml, EtOH 20% v/v",28.4 mg/mL
same,concentration of CN-Cbl,"[1]; after three days at room temperature, challenge 125 mg/ml, EtOH 30% v/v",37.9 mg/mL
same,concentration of CN-Cbl,"[1]; after three days at room temperature, challenge 125 mg/ml, EtOH 40% v/v",50.9 mg/mL
same,Conc of CN-Cbl,"[2]; heated to 37 degrees, After 2 weeks at Room Temperature, challenge 50 mg/mL, ethanol 20%, PG 20%",47.08 mg/mL
same,Conc of CN-Cbl,"[2]; heated to 37 degrees, After 2 weeks at Room Temperature, challenge 50 mg/mL, ethanol 20%, PG 30%",49.78 mg/mL
same,Conc of CN-Cbl,"[2]; heated to 37 degrees, After 2 weeks at Room Temperature, challenge 50 mg/mL, ethanol 20%, PG 40%",49.87 mg/mL
same,Conc of CN-Cbl,"[2]; heated to 37 degrees, After 2 weeks at Room Temperature, challenge 75 mg/mL, ethanol 20%, PG 20%",38.39 mg/mL
same,Conc of CN-Cbl,"[2]; heated to 37 degrees, After 2 weeks at Room Temperature, challenge 75 mg/mL, ethanol 20%, PG 30%",59.62 mg/mL
same,Conc of CN-Cbl,"[2]; heated to 37 degrees, After 2 weeks at Room Temperature, challenge 75 mg/mL, ethanol 20%, PG 40%",75.82 mg/mL
same,Conc of CN-Cbl,"[2]; heated to 60 degrees, After 3 days at Room Temperature, challenge 50 mg/mL, ethanol 0%, PG 0%",12.85 mg/mL
same,Conc of CN-Cbl,"[2]; heated to 60 degrees, After 3 days at Room Temperature, challenge 50 mg/mL, ethanol 20%, PG 0%",24.41 mg/mL
same,Conc of CN-Cbl,"[2]; heated to 60 degrees, After 3 days at Room Temperature, challenge 50 mg/mL, ethanol 20%, PG 10%",32.32 mg/mL
same,Conc of CN-Cbl,"[2]; heated to 60 degrees, After 3 days at Room Temperature, challenge 50 mg/mL, ethanol 20%, PG 20%",49.87 mg/mL
same,Conc of CN-Cbl,"[2]; heated to 60 degrees, After 3 days at Room Temperature, challenge 50 mg/mL, ethanol 20%, PG 30%",48.33 mg/mL
same,Conc of CN-Cbl,"[2]; heated to 60 degrees, After 3 days at Room Temperature, challenge 50 mg/mL, ethanol 20%, PG 40%",50.36 mg/mL
same,Conc of CN-Cbl,"[2]; heated to 60 degrees, After 3 days at Room Temperature, challenge 75 mg/mL, ethanol 0%, PG 0%",14.01 mg/mL
same,Conc of CN-Cbl,"[2]; heated to 60 degrees, After 3 days at Room Temperature, challenge 75 mg/mL, ethanol 20%, PG 0%",24.41 mg/mL
same,Conc of CN-Cbl,"[2]; heated to 60 degrees, After 3 days at Room Temperature, challenge 75 mg/mL, ethanol 20%, PG 10%",30.10 mg/mL
same,Conc of CN-Cbl,"[2]; heated to 60 degrees, After 3 days at Room Temperature, challenge 75 mg/mL, ethanol 20%, PG 20%",60.78 mg/mL
same,Conc of CN-Cbl,"[2]; heated to 60 degrees, After 3 days at Room Temperature, challenge 75 mg/mL, ethanol 20%, PG 30%",76.60 mg/mL
same,Conc of CN-Cbl,"[2]; heated to 60 degrees, After 3 days at Room Temperature, challenge 75 mg/mL, ethanol 20%, PG 40%",74.28 mg/mL
same,reduction of pH of the buffered solution on addition of CN-Cbl,[3],0.1 pH unit
